We go through three compounds from patent US20240018158A1, “BRM TARGETING COMPOUNDS AND ASSOCIATED METHODS OF USE” (Prelude Therapeutics Incorporated, priority 2020, published 2024).

pIC50: −log10 of the molar value.

Assay [1] has as its target T1, SMARCA2 (Homo sapiens (Human), UniProt P51531). Put plainly: In Cell Western SMARCA2 degradation in NCIH1693 cells. Type of assay: cell-based. The settings on record: for DC50: read-out: DC50 (SM2_H1693) SMARCA2 degradation potency; for Dmax: NCI-H1693, overnight, read-out: Dmax % (SM2_H1693) maximum SMARCA2 degradation within the concentrations tested. How it is done: (§1) Compound titration and cell culture: Compounds were dissolved in DMSO to make 10 mM stock and 3-fold series dilutions were further conducted keeping the highest concentration 10 μM. NCIH1693 and NCIH520 cells were maintained in PRMI 1640 medium (Corning Cellgro, Catalog #:10-040-CV) supplemented with 10% v/v FBS (GE Healthcare, Catalog #: SH30910.03) by splitting 1:3 twice a week.
(§2) To determine SMACRA2 and SMARCA4 protein degradation DC50 values in NCIH1693 and NCIH520 cells by In Cell Western (ICW) analysis. Cells were trypsinized and 30 thousand cells/well were seeded into 384-well plates and were allowed to grow for 5 hours at 37° C. Eight-point, 3-fold serial dilutions of compounds from 10 mM stocks were added to the cells (using digital Dispenser D300-Tecan, keeping highest concentration 10 μM and normalizing with DMSO at the highest dispensed volume). Plates were incubated at 37° C. for overnight (maximum 18 hours). Cells incubated with DMSO was used as a vehicle control.
(§3) To perform In Cell Western, medium was removed from all the wells leaving cells attached to the surface. After removing the medium, cells were fixed within the plates with 40 μL of 4% formaldehyde by incubating at room temperature for 30 minutes, and then permeabilized with wash buffer (1×PBS with 0.1% Triton X-100) by washing the plate 5 times with 50 μL/well. Before labeling with primary antibodies, cells were blocked with 30 μL/well of blocking buffer (Licor Odyssey blocking buffer PBS #927-40000) for 30 minutes at room temperature. To measure SMARCA2 or SMARCA4 proteins, cells were labeled with 20 μL/well of anti SMARCA2 or SMACRA4 antibodies (Cell Signaling BRM #11966S 1:1000, Cell Signaling BRG #49360S 1:1000) diluted in Li-Cor Odyssey blocking buffer-PBS #927-40000, followed by overnight incubation at 4° C.
(§4) The next day, plates were washed 5×5 minutes with 50 μL/well of washing buffer to remove all the excess primary antibody and then 20 μL from a mixture of secondary antibody and fluorescent DNA specific dye (Goat anti rabbit 1:500 IRDye-800CW #92632211, and DRAQ5™ 1:2000-#ab108410) was added to each well. Plates were incubated for 1 hour at room temperature with gentle rocking. Cells were washed 5 times with 50 μL/well wash buffer, followed by one last wash with DI water, followed by 10 mins drying at 37° C. oven before scanning. Plates were scanned using Li-Cor Odyssey CLx imaging system to acquire integrated intensities at 700 nm and 800 nm. SMARCA signals were normalized to total cell count and then these normalized values were used to calculate the percent degradation relative to DMSO control and maximum inhibition. DC50s were calculated by using the GraphPad Prism4 program based on sigmoidal dose response equation ([Inhibitor] vs. normalized response−Variable slope).

Assay [2] deals with bromodomain of SMARCA2 protein (Homo sapiens (Human), UniProt P40337+P51531). Put plainly: SMARCA2 bromodomain ternary binding TR-FRET assay (with VCB). The note with it: with saturating VCB (5 μM); read-out: IC50 (SM 2_T) ternary binding potency in SMARCA2 FRET assay. The source says: Recombinant bromodomain of SMARCA2 protein was purchased from Active Motif (Catalog #: 31449). VHL/ElonginB/ElonginC (VCB)N-terminal his6-tagged VHL (“his6” disclosed as SEQ ID NO: 4) (uniprot accession number P40337; M54-D213; […] […] […] (SEQ ID NO: 1)), Elongin B (Q15370; M1-K104; […] […] (SEQ ID NO: 2)), Elongin C (Q15369; M17-C112; […] […] (SEQ ID NO: 3)) complex were co-expressed and the complex was purified by Ni-affinity, TEV protease was then used to remove his6-tagged (SEQ ID NO: 4), and the complex was further purified by size-exclusion chromatography before use.
bromodomain of SMARCA2 protein, sequence (P51531 whole entry, looked up): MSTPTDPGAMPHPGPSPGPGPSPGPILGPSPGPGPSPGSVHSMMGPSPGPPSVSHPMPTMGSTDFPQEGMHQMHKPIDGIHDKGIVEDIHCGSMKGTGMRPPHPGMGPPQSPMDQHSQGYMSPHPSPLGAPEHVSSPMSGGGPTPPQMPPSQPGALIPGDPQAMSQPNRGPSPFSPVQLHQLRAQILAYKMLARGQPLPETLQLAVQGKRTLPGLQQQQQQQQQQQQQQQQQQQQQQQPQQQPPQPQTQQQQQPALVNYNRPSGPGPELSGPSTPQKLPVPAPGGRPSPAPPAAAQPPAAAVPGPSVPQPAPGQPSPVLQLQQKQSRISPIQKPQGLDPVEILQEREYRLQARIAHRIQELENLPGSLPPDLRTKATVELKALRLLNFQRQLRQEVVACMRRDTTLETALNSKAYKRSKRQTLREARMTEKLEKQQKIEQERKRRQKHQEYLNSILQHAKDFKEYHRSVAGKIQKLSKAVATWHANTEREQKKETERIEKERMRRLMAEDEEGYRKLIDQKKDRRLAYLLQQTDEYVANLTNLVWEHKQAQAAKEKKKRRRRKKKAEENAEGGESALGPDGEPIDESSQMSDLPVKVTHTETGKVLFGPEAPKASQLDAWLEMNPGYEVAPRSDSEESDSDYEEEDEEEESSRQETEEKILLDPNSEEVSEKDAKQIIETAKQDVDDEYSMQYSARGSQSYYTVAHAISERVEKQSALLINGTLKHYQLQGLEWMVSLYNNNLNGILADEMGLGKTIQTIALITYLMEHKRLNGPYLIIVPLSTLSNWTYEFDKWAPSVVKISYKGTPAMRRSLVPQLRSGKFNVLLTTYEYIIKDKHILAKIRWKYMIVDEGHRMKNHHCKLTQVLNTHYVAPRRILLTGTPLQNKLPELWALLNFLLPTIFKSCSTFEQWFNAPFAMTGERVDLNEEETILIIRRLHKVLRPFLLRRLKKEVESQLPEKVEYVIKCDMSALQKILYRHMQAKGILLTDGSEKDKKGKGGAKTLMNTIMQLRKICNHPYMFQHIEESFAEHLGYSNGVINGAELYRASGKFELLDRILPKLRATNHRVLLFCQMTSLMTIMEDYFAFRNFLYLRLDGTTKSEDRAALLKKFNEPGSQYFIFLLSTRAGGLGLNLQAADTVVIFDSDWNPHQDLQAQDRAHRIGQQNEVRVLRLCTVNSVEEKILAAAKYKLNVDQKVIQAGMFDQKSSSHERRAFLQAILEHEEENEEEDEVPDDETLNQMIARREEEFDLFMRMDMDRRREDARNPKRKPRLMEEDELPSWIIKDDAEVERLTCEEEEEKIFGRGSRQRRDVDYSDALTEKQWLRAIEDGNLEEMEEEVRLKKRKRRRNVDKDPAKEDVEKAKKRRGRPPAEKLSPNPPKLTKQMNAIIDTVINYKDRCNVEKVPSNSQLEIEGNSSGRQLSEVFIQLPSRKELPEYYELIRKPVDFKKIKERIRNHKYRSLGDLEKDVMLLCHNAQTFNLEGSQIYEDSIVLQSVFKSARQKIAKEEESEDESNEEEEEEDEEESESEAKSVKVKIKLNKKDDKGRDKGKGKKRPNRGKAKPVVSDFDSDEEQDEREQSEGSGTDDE
bromodomain of SMARCA2 protein, sequence (P40337 whole entry, looked up): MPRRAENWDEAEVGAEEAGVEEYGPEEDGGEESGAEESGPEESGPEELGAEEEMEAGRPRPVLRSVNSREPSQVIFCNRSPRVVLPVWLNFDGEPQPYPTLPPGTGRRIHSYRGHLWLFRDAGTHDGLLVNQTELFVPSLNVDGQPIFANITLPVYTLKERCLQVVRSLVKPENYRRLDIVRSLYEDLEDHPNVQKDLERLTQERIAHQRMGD
bromodomain of SMARCA2 protein, sequence (Q15370 whole entry partner, looked up): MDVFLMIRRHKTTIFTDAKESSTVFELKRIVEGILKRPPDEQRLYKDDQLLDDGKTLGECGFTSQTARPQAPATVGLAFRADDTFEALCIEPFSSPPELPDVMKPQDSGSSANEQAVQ
bromodomain of SMARCA2 protein, sequence (Q15369 whole entry partner, looked up): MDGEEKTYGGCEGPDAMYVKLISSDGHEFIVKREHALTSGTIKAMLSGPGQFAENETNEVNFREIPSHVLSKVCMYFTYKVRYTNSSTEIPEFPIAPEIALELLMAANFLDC
The inhibitory activity of compounds was evaluated in vitro using TR-FRET assay with white 384-well low volume microplate (PerkinElmer ProxiPlate Plus), in which the compound competes the same binding site with the ligand, and thus lead to dose-dependent TR-FRET signal reduction. The cooperativity of the compounds for ternary complex formation with E3 ligase was evaluated in the absence or presence of saturating concentrations of VCB. Testing compounds were dissolved in DMSO at […] and tested in 9-dose IC50. The assay mixture was prepared by mixing SMARCA2 (10 nM final), biotinylated probe (25 nM final), and assay buffer or VCB (5 μM) in 1×AlphaLISA Epigenetics Buffer (PerkinElmer AL008F) with 1 mM TCEP. The compounds in DMSO were added to each well in 3-fold serial dilution by dispenser (TECAN D300E) and incubate for 20 minutes at room temperature before addition of detection reagents, Lance Eu W1024 anti-6×His (0.6 nM final, PerkinElmer AD0110) and Streptavidin Surelight APC (6 nM final, PerkinElmer CR130-100). The plate was then sealed and further incubated at 4° C. overnight in dark, and then was read by Envision multimode plate reader (PerkinElmer, 2102-0010). The ratio of florescence signal at 665/620 was used in data analysis. Percentage inhibition was calculated by % inhibition=100×(FDMSO-F)/(FDMSO-FPC), in which FDMSO is DMSO control, and FPC is positive control. IC50 values were determined from dose response curve by fitting the percent inhibition against compound concentration using GraphPad Prism software.

The target of assay [3] is T1, SMARCA2. Put plainly: In Cell Western SMARCA2 degradation in NCIH520 cells. The note with it: for DC50: read-out: DC50 (SM2_H520) SMARCA2 degradation potency. The class given is cell-based. How it is done:
as §1, §2, §3, §4

Another assay has as its system NCIH1693 cells. As to the kind of experiment: Cell proliferation assay (ATPlite) in NCIH1693 cells. The class given is cell-based. The note with it: H1693 cells, day 4; read-out: IC50 (PRO_H1693) antiproliferation potency. The procedure: One thousand NCIH1693 or NCIH1703 cells per well were seeded in 96 well plate and incubated at 37° C. for 5 hrs. A series of three-fold dilution of compounds from 10 mM stock concentration were added to the cells by using digital Dispenser D300-Tecan, keeping highest concentration 10 μM and normalizing with DMSO at the highest dispensed volume). Cells incubated with DMSO was used as a vehicle control. After compound treatment plates were incubated at 37° C. for 4 days and cell viability was measured by measuring ATP content from the cell lysate using ATPlite Luminescence assay system (PerkinElmer Cat. no #6016941). Percentage of viable cells, relative to DMSO vehicle control and maximum inhibition, was calculated and plotted in Graphpad Prism ([Inhibitor] vs. normalized response−Variable slope) to determine cell proliferation IC50 values on day 4.
For orientation: ATP-based viability assays read luminescence as a measure of living cells.

T1 sequence (P51531 whole entry): as the sequence (P51531 whole entry, looked up) above

For the compound `Cc1ncsc1-c1ccc([C@H](C)NC(=O)[C@@H]2C[C@@H](O)CN2C(=O)[C@@H](NC(=O)CN2CCN3c4cc(-c5ccccc5O)nnc4NCC3C2)C(C)(C)C)cc1` (single isomer, unassigned) [Example 1b], the DC50 at SMARCA2 [1] (H1693 cells, overnight) is less than 0.1 µM; at SMARCA2 [3] (H520 cells, overnight), 0.1 to 1 µM. The Dmax at SMARCA2 [1] was more than 75%. Also, the pIC50 in assay [2] is more than 7.00; in the assay with NCIH1693 cells it was 6.00 to 7.00.
For the compound `Cc1scnc1-c1ccc(CNC(=O)[C@@H]2C[C@@H](O)CN2C(=O)[C@@H](NC(=O)CN2CCN3c4cc(-c5ccccc5O)nnc4NCC3C2)C(C)(C)C)cc1` (single isomer, unassigned) [Example 2a], the DC50 at SMARCA2 [1] (H1693 cells, overnight) was 0.1 to 1 µM; at SMARCA2 [3] (H520 cells, overnight), 0.1 to 1 µM. Moreover, the Dmax at SMARCA2 [1] is more than 75%; on SMARCA2 [3] (NCI-H520, overnight, read-out: Dmax % (SM2_H520) maximum SMARCA2 degradation within the concentrations tested) it was more than 75%. The pIC50 (in assay [2]; in the assay on NCIH1693 cells) was 6.00 to 7.00 each time.
With `Cc1scnc1-c1ccc(CNC(=O)[C@@H]2C[C@@H](O)CN2C(=O)[C@@H](NC(=O)CN2CCN3c4cc(-c5ccccc5O)nnc4NCC3C2)C(C)(C)C)cc1` (single isomer, unassigned) [Example 2b], the “Dmax % (SM2_H1693) maximum SMARCA2 degradation within the concentrations tested” value at SMARCA2 [1] (H1693 cells, overnight) was “A (A = Dmax > 75%)”. The DC50 lay within 1 to 10 µM at SMARCA2 [1] (H1693 cells, overnight) and 1 to 10 µM on SMARCA2 [3] (H520 cells, overnight). Moreover, the results for the pIC50 (in assay [2]; with NCIH1693 cells) were more than 7.00 and 5.00 to 6.00, respectively. Besides, the “Dmax % (SM2_H520) maximum SMARCA2 degradation within the concentrations tested” value on SMARCA2 [3] (H520 cells, overnight) is “A (A = Dmax > 75%)”.

For orientation: DC50 means the concentration giving 50% degradation.
